Test results: patent US6034238A, “Heterocyclic compounds, their preparation and their use as leucocyte adhesion inhibitors and VLA-4-antagonists” (Hoechst Marion Roussel Deutschland GmbH, priority 1997, dated 2000)
pIC50: −log10 of the molar value.

Molecular target: T1, interaction between VCAM-1 and VLA-4 (Homo sapiens, UniProt P05556+P13612)
T1 construct: supplied in their natural form as surface molecules on human U937 cells; host or cells: U937 (human)
Assay: U937/VCAM-1 cell adhesion test (adhesion of U937 cells to hVCAM-1 (1-3)-IgG)
Format: cell-based
Details: read-out: IC50 (50% inhibition of adhesion)
Description: The test method used for the activity of the compounds of the formula I on the interaction between VCAM-1 and VLA-4 is an assay which is specific for this interaction. The cellular binding components, i.e., the VLA4 integrins, are supplied in their natural form as surface molecules on human U937 cells (ATCC CRL 1593), which belong to the leucocytes group. The specific binding components used are genetically engineered recombinant soluble fusion proteins, consisting of the extracytoplasmatic domain of human VCAM-1 and the constant region of a human immunoglobulin of the subclass IgG1.
Assay for the measurement of the adhesion of U937 cells (ATCC CRL 1593) to hVCAM-1 (1-3)-IgG
1. Preparation of human VCAM-1(1-3)-IgG and human CD4-IgG
A genetic construct for the expression of the extracellular domain of human VCAM-1, associated with the genetic sequence of the heavy chain of human immunoglobulin IgG1 (hinge, CH2 and CH3 regions), from Dr. Brian Seed, Massachusetts General Hospital, Boston, USA (cf. Damle and Aruffo, Proc. NatI. Acad. Sci. USA 1991, 88, 6403-6407) was employed. The soluble fusion protein hVCAM-1 (1-3)-IgG contained the three amino-terminal extracellular immunoglobulin-like domains of human VCAM-1 (Damle and Aruffo, Proc. Natl. Acad. Sci. USA 1991, 88, 6403). CD4-IgG (Zeftimeissl et al., DNA and Cell Biology 1990, 9, 347) served as a fusion protein for negative controls. The recombinant proteins were expressed as soluble proteins after DEAE/dextran-mediated DNA transfection in COS cells (ATCC CRL1651) according to standard procedures (Ausubel et al., Current Protocols in Molecular Biology, John Wiley & Sons, Inc., 1994).
2. Assay for the measurement of the adhesion of U937 cells to hVCAM-1 (1-3)-IgG
2.1 96-well microtiter test plates (Nunc Maxisorb) were incubated at room temperature for 1 hour with 100 μl/well of a goat-anti-human-IgG antibody solution (10 μg/ml in 50 mM tris, pH 9.5). After removal of the antibody solution, washing was carried out once with PBS.
2.2 150 μl/well of a blocking buffer (1% BSA in PBS) was incubated on the plates at room temperature for 0.5 hour. After removal of the blocking buffer, washing was carried out once with PBS.
2.3 100 μl per well of a cell culture supernatant of transfected COS cells was incubated on the plates at room temperature for 1.5 hours. The COS cells were transfected with a plasmid which codes for the three N-terminal immunoglobulin-like domains of VCAM-1, coupled to the Fc part of human IgG1 (hVCAM-1(1--3)-IgG). The content of hVCAM-1 (1-3)-IgG was about 0.5-1 μg/ml. After removal of the culture supernatant washing was carried out once with PBS. […]

T1 sequence (P13612 34-1032): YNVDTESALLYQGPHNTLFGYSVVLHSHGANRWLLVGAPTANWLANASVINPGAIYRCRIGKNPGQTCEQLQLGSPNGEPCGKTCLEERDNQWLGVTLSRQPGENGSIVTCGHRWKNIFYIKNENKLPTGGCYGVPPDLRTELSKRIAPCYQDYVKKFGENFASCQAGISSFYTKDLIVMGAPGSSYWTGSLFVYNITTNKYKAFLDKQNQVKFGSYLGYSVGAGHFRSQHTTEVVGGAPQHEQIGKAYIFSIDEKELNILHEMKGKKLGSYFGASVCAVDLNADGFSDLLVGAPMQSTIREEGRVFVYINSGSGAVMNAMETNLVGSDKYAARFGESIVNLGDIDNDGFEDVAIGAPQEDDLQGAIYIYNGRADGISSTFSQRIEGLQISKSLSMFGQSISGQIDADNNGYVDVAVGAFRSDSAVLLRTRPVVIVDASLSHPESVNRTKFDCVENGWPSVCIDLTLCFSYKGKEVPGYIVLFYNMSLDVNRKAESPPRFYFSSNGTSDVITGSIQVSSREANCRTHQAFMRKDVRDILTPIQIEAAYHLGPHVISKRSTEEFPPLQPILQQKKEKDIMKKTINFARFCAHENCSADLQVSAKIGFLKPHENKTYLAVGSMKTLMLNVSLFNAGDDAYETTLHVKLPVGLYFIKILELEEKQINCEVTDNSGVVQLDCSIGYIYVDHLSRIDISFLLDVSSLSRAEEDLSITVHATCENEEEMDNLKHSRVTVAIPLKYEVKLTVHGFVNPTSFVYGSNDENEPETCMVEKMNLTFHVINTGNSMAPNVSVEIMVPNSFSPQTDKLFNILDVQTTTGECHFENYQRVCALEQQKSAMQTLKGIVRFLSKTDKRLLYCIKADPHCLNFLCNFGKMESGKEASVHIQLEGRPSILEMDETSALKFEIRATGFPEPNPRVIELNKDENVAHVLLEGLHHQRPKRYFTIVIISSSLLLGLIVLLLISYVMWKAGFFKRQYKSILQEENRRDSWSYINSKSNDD
T1 sequence (P05556 21-798): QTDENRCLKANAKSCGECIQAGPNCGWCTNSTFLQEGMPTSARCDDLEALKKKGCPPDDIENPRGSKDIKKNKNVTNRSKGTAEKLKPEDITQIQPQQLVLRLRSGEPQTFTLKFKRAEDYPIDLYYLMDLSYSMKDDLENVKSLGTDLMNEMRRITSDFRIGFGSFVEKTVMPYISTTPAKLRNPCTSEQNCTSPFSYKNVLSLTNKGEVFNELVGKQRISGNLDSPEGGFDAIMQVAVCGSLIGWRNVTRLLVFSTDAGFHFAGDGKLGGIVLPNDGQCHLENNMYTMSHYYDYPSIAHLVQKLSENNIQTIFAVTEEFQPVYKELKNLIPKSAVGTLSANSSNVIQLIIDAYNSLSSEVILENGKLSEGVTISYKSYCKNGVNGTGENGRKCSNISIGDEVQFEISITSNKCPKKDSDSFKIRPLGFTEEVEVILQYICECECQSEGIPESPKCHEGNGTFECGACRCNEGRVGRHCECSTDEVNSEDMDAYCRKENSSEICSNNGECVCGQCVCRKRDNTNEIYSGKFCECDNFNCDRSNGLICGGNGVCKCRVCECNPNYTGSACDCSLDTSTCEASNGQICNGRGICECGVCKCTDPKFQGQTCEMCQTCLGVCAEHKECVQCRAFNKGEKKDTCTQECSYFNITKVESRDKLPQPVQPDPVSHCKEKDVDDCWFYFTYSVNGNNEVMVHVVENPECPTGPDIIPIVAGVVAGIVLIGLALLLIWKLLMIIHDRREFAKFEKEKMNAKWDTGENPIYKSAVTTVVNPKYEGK

| pIC50 | SMILES |
| --- | --- |
| 6.14 | CC(C)[C@H](NC(=O)[C@H](CC(=O)O)N(C)C(=O)CN1C(=O)N(Cc2ccc3ccccc3c2)C(C)(c2ccc(C(=N)N)cc2)C1=O)C(=O)N1CCOCC1 (stereo partly drawn) [Example 5, ((R,S)-4-(4-(Amino-imino-methyl)phenyl)-3-(2-naphthylmethyl)-4-methyl-2,5-dioxoimidazolidin-1-yl)acetyl-L-(N-methylaspartyl)-L-valine morpholide] |
| 4.98 | CC1(c2ccc(C(=N)N)cc2)C(=O)N(CC(=O)NC[C@H](NC(=S)NCc2ccccc2)C(=O)O)C(=O)N1Cc1ccccc1 (stereo partly drawn) [Example 4, (S)-(((R,S)-4-(4-(Amino-imino-methyl)phenyl)-3-benzyl-4-methyl-2,5-dioxoimidazolidin-1-yl)acetylamino)-2-benzylaminothiocarbonylamino-propionic acid] |
| 5.90 | CC1(c2ccc(C(=N)N)cc2)C(=O)N(CC(=O)NC[C@H](NC(=O)OCC23CC4CC(CC(C4)C2)C3)C(=O)O)C(=O)N1Cc1ccccc1 (stereo partly drawn) [Example 1, (S)-3-(((R,S)-4-(4-(Amino-imino-methyl)phenyl)-3-benzyl-4-methyl-2,5-dioxoimidazolidin-1-yl)acetylamino)-2-(1-adamantylmethyloxy-carbonylamino)propionic acid] |
| 4.94 | CC1(c2ccc(C(=N)N)cc2)C(=O)N(CC(=O)NC[C@H](NC(=O)NCc2ccccc2)C(=O)O)C(=O)N1Cc1ccccc1 (stereo partly drawn) [Example 3, (S)-3-(((R,S)-4-(4-(Amino-imino-methyl)phenyl)-3-benzyl-4-methyl-2,5-dioxoimidazolidin-1-yl)acetylamino)-2-benzylaminocarbonylaminopropionic acid] |
